# What was measured:
# [1] = tested on: paclitaxel-induced neuropathy model; test: Paclitaxel-induced thermoparesthesia in the paclitaxel-induced neuropathy model; type: in vivo, rats; conditions: for maximum inhibition rate (thermoparesthesia): paclitaxel 6 mg/kg i.v. 5-times every other day
# tubulin = conditions: paclitaxel 6 µM; cited from earlier work
# [2] = human, in vivo
# Description: • Figure 1 illustrates a comparison of the number of hypersensitivity Adverse Events between groups of patients in whom 2,2'-dithio-bis-ethane sulfonate or a placebo was infused over (1) 30 minutes, (2) 30 and 45 minutes, or (3) 45 minutes. […] Drug concentrations of disodium 2,2'-dithio-bis-ethane sulfonate administered were 200 mg/mL infused over 30 minutes, 200 mg/mL and 100 mg/mL infused over 30 & 45 minutes, respectively, and 100 mg/mL infused over 45 minutes.
# The patients' body surface area (BSA) was determined based on the use of standard methods that are customarily used for such purposes, including standardized nomograms and calculations that utilize the individual height and weight data from each patient.
# Figure 1 illustrates a comparison of the number of hypersensitivity Adverse Events between groups of patients in whom 2,2'-dithio-bis-ethane sulfonate or a placebo was infused over (1) 30 minutes, (2) 30 minutes and 45 minutes, or (3) 45 minutes. In addition, the total number of hypersensitivity Adverse Events, the mean time to the first hypersensitivity Adverse Event, and a variety of the types of hypersensitivity Adverse Events were also shown.
# Drug concentrations administered were about 200 mg/mL infused over about 30 minutes, about 200 mg/mL and about 100 mg/mL infused over about 30 & about 45 minutes, respectively, and about 100 mg/mL infused over about 45 minutes.
# [3] = tested on: patients with advanced non-small cell lung carcinoma (NSCLC); test: Japan Phase III Clinical Trial (paclitaxel + cisplatin, placebo-controlled; PNQ primary evaluation); type: in vivo, human; conditions: paclitaxel/Tavocept/cisplatin vs paclitaxel/saline placebo/cisplatin, NSCLC patients (Figure 5)
# Description: The Japan Phase III Clinical Trial was conducted as a double-blind study because peripheral neuropathy is diagnosed based on subjective symptoms evaluated through clinical interviews, lab tests, and the like. Accordingly, evaluations by both physicians and patients are highly important. […] A placebo was used as control since there is no established therapy or drug for preventing peripheral neuropathy. Because the severity of peripheral neuropathy is evaluated based on patients' reports (i.e., subjective symptoms), the Peripheral Neuropathy Questionnaire (PNQ^© was used in primary evaluation. The CIPN-20 questionnaire and the National Cancer Institute - Common Toxicity Criteria (NCI-CTC) were used in secondary evaluation. The incidence and severity of adverse reactions, time to their onset, etc. and the like, were compared between patients treated with Tavocept™ and those given a placebo using the aforementioned methods.
# The Primary Endpoint of the Japan Phase III Clinical Trial described in the present invention was specifically designed to test the hypothesis of whether chemotherapy-induced intermittent peripheral neuropathy would occur. […] The results illustrated in Figure 3 indicate that intermittent peripheral neuropathy was specifically identified and measured in the Japan Phase III Clinical Trial. […]
structure (smiles),measurement,setting,value
"O=S(=O)([O-])CCSSCCS(=O)(=O)[O-].[Na+].[Na+] [Tavocept, disodium 2,2'-dithio-bis-ethane sulfonate]",maximum inhibition rate (thermoparesthesia),"[1]; 1,000 mg/kg",41.7%
same,inhibition rates of thermoparesthesia,"[1]; 2,000 mg/kg i.v. immediately after paclitaxel 12 mg/kg i.p. once a week for 5 weeks",19.2-34.1%
same,maximum inhibition rate (thermoparesthesia),"[1]; 2,000 mg/kg",41.5%
same,concentration that inhibits tubulin polymerization induced by paclitaxel,tubulin,6 mM
same,reduction in hypersensitivity Adverse Events in the treatment population,[2],≤ 57%
same,reduction in severe (Grade D or E) intermittent or cumulative peripheral neuropathy,[3],~50%
